Measurements as given in patent publication US10350284B1, “Antigen specific multi epitope-based anti-infective vaccines” (priority 2009, dated 2019).
“And” between values parts separate entries of the source, which are not always exact repeats. Equal entries are not always repeated. Where two headings read alike, the source gives them in different places.

Legend:
Assay type in all cases: cell-based, human
[1] = tested on: naïve peripheral blood mononuclear cells (PBMC); test: Proliferation ([3H] Thymidine) of PBMC from naïve donors stimulated with VXL tuberculosis vaccine candidates; conditions: for positive proliferation in donors which also manifested response to TT: TT positive (SI≥2) naïve PBMC, FIG. 3A; for positive proliferation in donors which also manifested response to TT / SI and coverage in the total 11 donors / proliferation in PPD positive versus PPD negative donors / proliferation in donors which also manifested response to PPD: in words; for SI and coverage in the total 11 donors: in comparison with the positive controls; for proliferation in PPD positive versus PPD negative donors: naïve PBMC, FIG. 4; for proliferation in donors which also manifested response to PPD: PPD positive (SI≥2) naïve PBMC, FIG. 3B
[2] = tested on: PBMC derived from naïve donors; test: Cytokine secretion (quantitative ELISA) by PBMC from naïve donors; conditions: for donors with positive (x>0.1 ng/ml) IL-12 secretion / donors with positive (x>0.1 ng/ml) IL-2 secretion / donors with positive (x>0.1 ng/ml) IL-4 secretion: 48 hrs stimulation, FIG. 7A
[3] = tested on: autologous macrophages loaded with VXL VCs; test: Cytotoxic activity of VXL-induced T cell lines against loaded autologous macrophages (35S Methionine); conditions: T cell line induced by the peptide; in words
[4] = tested on: anti-VXL effector T-cell lines; test: IFN-gamma released by effector T cell lines during the lysis process (ELISA)
[5] = tested on: anti-VXL VCs T cell lines from naïve donors; test: FACS phenotype of anti-VXL T cell lines (CD44high, CD62Lhigh); conditions: FIG. 14; for CD44high activated effector cells in CD8+ / CD62Lhigh memory cells in CD8+: after the 3rd stimulation; for CD62Lhigh memory cells in CD4+ / CD44high activated effector cells in CD4+: already after the 1st stimulation
[6] = tested on: anti-VXL T cell lines after the 3rd stimulation; test: Intra-cellular staining (ICS) FACS for IFN-gamma and IL-4 in T cell lines; conditions: 6 h stimulation with peptide-loaded autologous macrophages, FIG. 15
[7] = tested on: autologous macrophages infected with live Mtb; conditions: peptide-induced T cell lines from naïve donors and TB patients, FIG. 12; in words
[8] = donor #15 (FIG. 12B), naïve donor T cell line
[9] = patient #18 (FIG. 12D), Mtb patient T cell line

Sequence: MRPSRYAPLLCAMVLALAWLSAVAG (listed as Mycobacterium tuberculosis) [VXL214, signal peptide of Putative lipoprotein IpqV precursor, Tuberculosis]
- positive proliferation in donors which also manifested response to TT [1]: to some extent

Sequence: MKRGLTVAVAGAAILVAGLSGCSS [VXL203]
- donors with positive (x>0.1 ng/ml) IL-12 secretion [2]: 8.6%
- lysis against PPD-loaded targets [3]: specific lysis
- average SI [1]: 1.8+/−0.8
- positive proliferation in donors which also manifested response to TT [1]: to some extent
- SI and coverage in the total 11 donors [1]: to some extent
- proliferation in PPD positive versus PPD negative donors [1]: more potent in donors which were not exposed in the past to the tuberculosis Bactria
- average SI ([1]; pure (>90%) peptide, naïve donors, FIG. 9A): 5.7+/−6.8
- IFN-gamma detected [4, 8]: 3.8 µg/mL
- IFN-gamma detected [4, 9]: 11 µg/mL
- CD44high activated effector cells in CD8+ [5]: 79%
- CD62Lhigh memory cells in CD8+ [5]: 17%
- CD62Lhigh memory cells in CD4+ [5]: 39%
- maximal percentage of specific IFN-gamma produced by CD8+ T-cells [6]: 8.2%
- lysis of Mtb infected macrophages [7]: high and specific lysis

Sequence: MLVLLVAVLVTAVYAFVHA (listed as Mycobacterium tuberculosis) [VXL211, signal peptide of Uncharacterized protein Rv0476/MT04941 precursor, Tuberculosis]
- donors with positive (x>0.1 ng/ml) IL-2 secretion [2]: 91.6%
- donors with positive (x>0.1 ng/ml) IL-12 secretion [2]: 58.3%
- lysis against PPD-loaded targets [3]: specific lysis
- proliferation in donors which also manifested response to PPD [1]: stronger
- positive proliferation in donors which also manifested response to TT [1]: more positive
- SI and coverage in the total 11 donors [1]: highest SI and widest coverage
- proliferation in PPD positive versus PPD negative donors [1]: even stronger in donors with previous exposure to the tuberculosis Bactria
- IFN-gamma detected [4]: 9.2 µg/mL and 7.8 µg/mL
- IFN-gamma detected [4, 8]: 5.9 µg/mL
- CD44high activated effector cells in CD8+ [5]: 80%
- CD62Lhigh memory cells in CD8+ [5]: 40.9%
- CD44high activated effector cells in CD4+ [5]: 41%
- maximal percentage of specific IFN-gamma produced by CD8+ T-cells [6]: 10.6%
- lysis of Mtb infected macrophages [7]: moderate lysis

Sequence: MTDVSRKIRAWGRRLMIGTAAAVVLPGLVGLAGGAATAGA (listed as Mycobacterium tuberculosis) [VXL201, signal peptide of Antigen 85B, Tuberculosis]
- proliferation in donors which also manifested response to PPD [1]: stronger
- positive proliferation in donors which also manifested response to TT [1]: more positive
- SI and coverage in the total 11 donors [1]: highest SI and widest coverage
- proliferation in PPD positive versus PPD negative donors [1]: even stronger in donors with previous exposure to the tuberculosis Bactria
- IFN-gamma detected [4]: 6 µg/mL and 10 µg/mL and 11.3 µg/mL
- IFN-gamma detected [4, 9]: 14 µg/mL
- lysis of Mtb infected macrophages [7]: high and specific lysis

Sequence: MAAMWRRRPLSSALLSFGLLLGGLPLAAPPLAGA (listed as Mycobacterium tuberculosis) [VXL207, signal peptide of Protease, Tuberculosis]
- donors with positive (x>0.1 ng/ml) IL-4 secretion [2]: 25%
- donors with positive (x>0.1 ng/ml) IL-12 secretion [2]: 8.6%

Sequence: MLLRKGTVYVLVIRADLVNAMVAHA (listed as Mycobacterium tuberculosis) [VXL212, signal peptide of Uncharacterized protein Rv1334/MT1376 precursor, Tuberculosis]
- donors with positive (x>0.1 ng/ml) IL-12 secretion [2]: 58.3%
- proliferation in donors which also manifested response to PPD [1]: stronger
- positive proliferation in donors which also manifested response to TT [1]: more positive
- SI and coverage in the total 11 donors [1]: highest SI and widest coverage
- proliferation in PPD positive versus PPD negative donors [1]: even stronger in donors with previous exposure to the tuberculosis Bactria
- IFN-gamma detected [4]: 5.6 µg/mL and 3.6 µg/mL
- IFN-gamma detected [4, 9]: 7.5 µg/mL
- lysis of Mtb infected macrophages [7]: lower lysis levels

Sequence: MRFAQPSALSRFSALTRDWFTSTFAAPTAAQA (listed as Mycobacterium tuberculosis) [VXL208, signal peptide of ATP dependent helicase putative, Tuberculosis]
- donors with positive (x>0.1 ng/ml) IL-4 secretion [2]: 25%
- IL-4 secretion ([2]; in words): some secretion of IL-4
- proliferation in donors which also manifested response to PPD [1]: stronger
- positive proliferation in donors which also manifested response to TT [1]: more positive
- SI and coverage in the total 11 donors [1]: highest SI and widest coverage
- proliferation in PPD positive versus PPD negative donors [1]: even stronger in donors with previous exposure to the tuberculosis Bactria
- IFN-gamma detected [4]: 2.6 µg/mL
- IFN-gamma detected [4, 8]: 3.6 µg/mL
- CD44high activated effector cells in CD8+ [5]: 50.2%
- CD62Lhigh memory cells in CD8+ [5]: 32.1%
- CD44high activated effector cells in CD4+ [5]: 52%
- CD62Lhigh memory cells in CD4+ [5]: 22%
- lysis of Mtb infected macrophages [7]: lower lysis levels

Sequence: MKIRLHTLLAVLTAAPLLLAAAGCGS [VXL200]
- donors with positive (x>0.1 ng/ml) IL-2 secretion [2]: 25%
- proliferation in donors which also manifested response to PPD [1]: stronger
- positive proliferation in donors which also manifested response to TT [1]: to some extent

Sequence: MKTGTATTRRRLLAVLIALALPGAAVA (listed as Mycobacterium tuberculosis) [VXL206, signal peptide of Hypothetical protein MT0 213, Tuberculosis]
- donors with positive (x>0.1 ng/ml) IL-12 secretion [2]: 8.6%
